As usually defined, the Ki is a dissociation constant, usually derived from enzyme kinetics or from competition with a known ligand. The term share remaining denotes what is left of the initial amount, in per cent.

The structures appear in SMILES notation.

Consider 4 compounds from ChEMBL document CHEMBL5042528, “Optimization of 2-Amino-4,6-diarylpyrimidine-5-carbonitriles as Potent and Selective A1 Antagonists” (J Med Chem, 2022).

In data set [1] the target is T1, Adenosine receptor A1 (Homo sapiens, UniProt P30542).
T1 sequence (P30542 whole entry): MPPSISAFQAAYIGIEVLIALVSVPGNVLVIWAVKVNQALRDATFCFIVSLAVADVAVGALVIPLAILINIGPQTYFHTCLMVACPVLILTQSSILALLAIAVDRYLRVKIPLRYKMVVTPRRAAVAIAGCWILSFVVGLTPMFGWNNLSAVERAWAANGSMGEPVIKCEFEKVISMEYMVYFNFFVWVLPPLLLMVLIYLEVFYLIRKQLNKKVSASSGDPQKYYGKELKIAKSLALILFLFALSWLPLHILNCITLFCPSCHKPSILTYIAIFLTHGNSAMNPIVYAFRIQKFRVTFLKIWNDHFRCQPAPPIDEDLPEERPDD
Description: Displacement of [3H]DPCPX from A1 adenosine receptor (unknown origin) expressed in CHO cell membrane incubated for 60 mins at room temperature by NXT microplate scintillation counter analysis. The data set is classed as cell membranes.

Data set [2] concerns the target T2, Adenosine receptor A2a (Homo sapiens, UniProt P29274).
Data set [3] addresses T1, Adenosine receptor A1.
The target of data set [4] is T2, Adenosine receptor A2a. This is another data set of the same source.
A further data set in a line: in vitro. The following applies: human, liver microsomes. (In general: Liver microsomes are a subcellular fraction often used to study metabolism.)

T2 sequence (P29274 whole entry): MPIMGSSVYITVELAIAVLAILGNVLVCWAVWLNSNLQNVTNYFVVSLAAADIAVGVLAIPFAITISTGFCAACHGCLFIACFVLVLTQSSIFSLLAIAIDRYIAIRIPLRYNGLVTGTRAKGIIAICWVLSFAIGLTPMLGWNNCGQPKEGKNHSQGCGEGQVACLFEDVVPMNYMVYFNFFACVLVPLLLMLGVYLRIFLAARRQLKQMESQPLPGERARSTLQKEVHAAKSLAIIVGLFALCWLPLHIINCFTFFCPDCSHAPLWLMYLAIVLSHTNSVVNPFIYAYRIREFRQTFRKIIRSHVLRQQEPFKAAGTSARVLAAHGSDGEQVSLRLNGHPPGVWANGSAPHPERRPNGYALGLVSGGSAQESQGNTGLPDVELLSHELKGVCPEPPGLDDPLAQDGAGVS
Description for in vitro: Stability of the compound in human liver microsome assessed as compound remaining measured after 60 mins by UPLC-MS/MS analysis

`Nc1nc(-c2ccccc2)c2c(n1)-c1ccccc1C2=O` registered a Ki on Adenosine receptor A1 [1] of 0.1 nM.

Take `N#Cc1c(-c2ccccc2)nc(Nc2ccccc2)nc1-c1cccc(O)c1`: the values for the Ki at Adenosine receptor A2a [2] and on Adenosine receptor A1 [3] were 71.2 nM and 18.3 nM, respectively. At Adenosine receptor A2a [4], `N#Cc1c(-c2ccccc2)nc(NC(=O)C2CCCC2)nc1-c1ccc2c(c1)OCO2` displayed a Ki of 159 nM. In the data set “in vitro”, `C[C@]12CC[C@H]3[C@@H](CCC4=CC(=O)CC[C@@]43C)[C@@H]1CC[C@@H]2O` [TESTOSTERONE] yielded a share remaining at 1 h of 3.7%.
